How the values were obtained:
[1] = tested on: rat washed platelets (thromboxane A2-receptor antagonistic activity); experiment: Inhibitory Effect on Platelet Aggregation in Rat (washed platelets, collagen-induced, in vitro); format: cell-based, rat (Sprague-Dowley); conditions: 0.05 h, collagen inducer, 37° C., 3 minutes after inducer, Compounds Ia and Ib used as their sodium salts, read-out: Inhibition for Platelet Aggregation IC50
Procedure: (§1) From the abdominal artery of a male rat (Sprague-Dowley, 7 weeks old) was collected 10 ml of blood with a plastic syringe containing 1.5 ml of ACD (85 mM of sodium citrate, 70 mM of citric acid, 110 mM of glucose) and 20 μg of prostaglandin E1. The blood was placed in a plastic test tube, shaken moderately turning and centrifuged for 10 minutes at 160×g to give platelet rich plasma (PRP). To the prepared PRP was added apyrase (25 μg/ml) and the mixture was layered on 40% bovine serum albumin. The resulting mixture was centrifuged at 1200×g for 25 minutes. The suspension of the prepared platelet pellets in a small amount of a buffer (137 mM of NaCl, 2.7 mM of KCl, 1.0 mM MgCl2, 3.8 mM of NaH2 PO4, 3.8 mM of Hepes, 5.6 mM of glucose, 0.035% of bovine serum albumin, pH 7.35) was applied on 10 ml of Sepharose 2B column and eluted with such a buffer to prepare washed platelets.
(§2) The platelet aggregation reaction was measured by the aggregometer (NKK HEMA TRACER 1 MODEL PAT-6A.6M, Nikkou Bioscience).
In a measuring curvette was placed 245 μl of the washed platelets which concentration was adjusted to […] and set in the aggregometer. The adjusted washed platelets were stirred (1000 rpm) at 37° C. and 3.8 μl of 0.1M CaCl2 was added thereto. One minute later, 0.5 μl of a solution of a test compound in dimethylsulfoxide was added and 2 minutes later, 1 μl of collagen (Collagen reagent Horm®, HORMON-CHEMIE Munchen GMBH, final concentration […]) was added as an inducer for platelet aggregation. Platelet aggregation was monitored in terms of the increase and decrease in light transmission.
Concentration of 50% inhibition for platelet aggregation was calculated from the rate of aggregation. (The rate corresponds to light transmission of a sample which was measured at 3 minutes after adding the inducer for platelet aggregation, provided that light transmissions of the washed platelets and the buffer samples are taken as 0% and 100%, respectively.)

mice = experiment: Respiration inhibitory activity on intravenous injection to mice (index of partial agonistic activity); format: in vivo; conditions: intravenously injected to mice
rat platelet = experiment: Partial agonistic activity (activity to induce the shape change in rat platelet); format: cell-based; conditions: decrease in light transmission, rat washed platelets, 0.1M CaCl2, read-out: ED50 of partial agonistic activity (shape change)
Procedure: as §1, §2
Furthermore, partial agonistic activity (activity to induce the shape change in rat platelet) was determined according to the method used for the reaction of platelet aggregation. To the washed platelets was added 0.1M CaCl2 aqueous solution and 1 minute later, the decrease in light transmission caused by the test compounds was determined to estimate the activity.

Row | SMILES | IC50 [1] [nM] | EC50 (rat platelet) [nM] | partial agonistic activity by determination of respiration inhibitory activity (mice)
1 | CONC(=O)CCC/C=C\C[C@H]1[C@@H]2CC[C@@H](C2)[C@@H]1NS(=O)(=O)c1ccccc1 [Ie, (1R, 2S, 3S, 4S)-(5Z)-0-methyl-7-[3-phenylsulfonylaminobicyclo[2.2.1]hept-2-yl]-5-heptenohydroxamic acid] | 60 |  | 
2 | CN(O)C(=O)CCC/C=C\C[C@H]1[C@@H]2CC[C@@H](C2)[C@@H]1NS(=O)(=O)c1ccccc1 [If, (1R, 2S, 3S, 4S)-(5Z) -N-methyl-7-(3-phenylsulfonylaminobicyclo[2.2.1]hept-2-yl)-5-heptenohydroxamic acid] | 20 |  | 

Further lines, with some results ahead:

Row | IC50 [1] [nM] | EC50 (rat platelet) [nM] | SMILES | partial agonistic activity by determination of respiration inhibitory activity (mice)
3 | 12 |  | O=C(CCC/C=C\C[C@H]1[C@@H]2CC[C@@H](C2)[C@@H]1NS(=O)(=O)c1ccccc1)NO [Ia, (1R,2S,3S,4S)-(5Z)-7-(3-phenylsulfonyl-aminobicyclo[2.2.1]hept-2-yl)-5-heptenohydroxamic acid] | substantially no partial agonistic activity
4 | 10 |  | O=C(CCC/C=C\C[C@H]1[C@@H]2CC[C@@H](C2)[C@@H]1NS(=O)(=O)c1ccc(O)cc1)NO [Ib, (1R,2S,3S,4S)-(5Z)-7-[3-(4-hydroxyphenylsulfonylamino)bicyclo[2.2.1]hept-2-yl]-5-heptenohydroxamic acid] | 
5 | 20 |  | O=C(CCC/C=C\[C@@H]1[C@H]2CC[C@H](C2)[C@H]1CNS(=O)(=O)c1ccc(Br)cc1)NO [Ic, (1S, 2S, 3R, 4R)-(5Z)-6-[3-(4-bromophenylsulfonylaminomethyl)bicyclo[2.2.1]hept-2-yl]-5-hexenohydroxamic acid] | 
6 | 2 | 1 | Cc1ccc(S(=O)(=O)N[C@H]2[C@H]3CC[C@H](C3)[C@@H]2C/C=C\CCCC(=O)O)cc1 [Rf. Compd., reference compound] | 

Source: patent US5137914A, “Sulfonylamino substituted bicyclo [2.2.1]heptane hydroxamic acid derivatives useful as pharmaceuticals” (Shionogi & Co., Ltd., priority 1990, dated 1992)
